Patent publication US20200215153A1, “CANCER TREATMENT AND/OR PREVENTION THROUGH REGULATION OF UBIQUITINATION” (Academia Sinica, priority 2018, published 2020)

Key:
BIKDD = BIKDD levels in TNBC cell lines treated with IRE1α inhibitor; format: cell-based; conditions: TNBC cell lines Hs578T, MDA-MB157 and MDA-MB468
Procedure: (§1) Cell extraction was performed with RIPA lysis buffer containing 50 mM Tris (pH 8.0), 0.15 M NaCl, 1% NP40, 1% sodium deoxycholate, 0.1% SDS, 1 mM PMSF, 1 µg/ml aprotinin, and 1 µg/ml leupeptin. Western blot was performed with the standard protocol. For an efficient detection of BIK by Western blot, Tricine-SDS-PAGE was used. Western blot analyses of other proteins were performed with Glycine-SDS-PAGE. Immunoprecipitation was performed and analyzed as previously described. Briefly, cell lysates were incubated with primary antibody for overnight. The Pure Proteome Protein A/G Magnetic Beads (LSKMAGA/G10, EMD Millipore) were then added into cell lysates and incubated for 1.5 h. The beads were washed with RIPA lysis buffer and the bound proteins were analyzed by Western blot.

[1] = tested on: TNBC cells (Hs578T, MDA-MB157, MDA-MB468); experiment: MTT assay for viability of TNBC cells transfected with BIKDD and treated with IRE1α inhibitor; format: cell-based; conditions: 10 or 100 μM STF-083010, 48 h
Procedure: (§2) FIG. 7. […] (a, c) MTT assay for the viability of indicated TNBC cells transfected with […] CMV-BIKDD (a) or VISA-BIKDD (c) and treated with 10 or 100 μM STF-083010 for 48 h. CI values are indicated. (b) Western blot analysis of cleaved PARP in indicated TNBC cells transfected with CMV-BIKDD and treated with 100 μM STF-083010 for 36 h. […] Tumor volume were measured at indicated days and plotted. Data are mean±s.d., *P<0.05; ***P<0.001 by two-way ANOVA with Turkey's post test, n=5. Tumors were surgically removed at day 49 and their sizes are shown on the right. (e) Mice orthotopically implanted with Hs578T cells and treated with VISA-BIKDD lipid nanoparticle together with STF-083010 or DMSO starting at day 28 after tumor cell implantation (see Materials and Methods). Tumor volume were measured at indicated days and plotted. Data are mean±s.d., ***P<0.001 by two-way ANOVA with Turkey's post test, n=5. Tumors were surgically removed at day 66 and their sizes are shown on the right.
MDA-MB157 and MDA-MB 468 cells were seeded at a density of 5×10^3 cells and Hs578T cells were at 2×10^3 cells in 96-well plates. Cells were transfected with BIKDD. In the next day, cells were treated with IRE1α inhibitor or DMSO for 48 h and then with 0.4 mg/ml methylthiazolyldiphenyltetrazolium bromide (MTT) (Sigma) for 2 h. Cells were dissolved in DMSO, followed by absorbance measurement at 590 nm. The combination index (CI) was calculated using the equation: CI=CA/IC50A+CB/IC50B. CA and CB represent the concentrations of the two agents for combined treatment. IC50A and IC50B are the IC50 values for each single treatment, which were determined by treating cells with various dosages of each agent followed by MTT assay. (CI<1) indicates a synergistic effect, (CI>1) corresponds to an antagonistic effect, and (CI=1) represents an additive effect.

cleaved PARP = experiment: Western blot analysis of cleaved PARP in TNBC cells; format: cell-based; conditions: TNBC cells transfected with CMV-BIKDD, 100 μM STF-083010, 36 h; FIG. 7b
Procedure: as §2
Cell extraction was performed with RIPA lysis buffer containing 50 mM Tris (pH 8.0), 0.15 M NaCl, 1% NP40, 1% sodium deoxycholate, 0.1% SDS, 1 mM PMSF, 1 µg/ml aprotinin, and 1 µg/ml leupeptin. Western blot was performed with the standard protocol. […] Immunoprecipitation was performed and analyzed as previously described. […] The beads were washed with RIPA lysis buffer and the bound proteins were analyzed by Western blot.

[2] = tested on: Hs578T orthotopic breast tumors; experiment: Orthotopic Hs578T tumor model, cells expressing BIKDD or control vector, treated with STF-083010; format: in vivo, nude mice
Procedure: (§3) All mice were maintained according to the guidelines of animal ethical regulations, and all animal studies were approved by the Experimental Animal Committee, Academia Sinica. […] Seven days later, DMSO or STF-083010 (40 mg/kg) was intraperitoneally administrated every 3 days. […] Twenty-eight days later, DMSO or STF-083010 (40 mg/kg) was intraperitoneally administrated every 3-4 days. […] For both models, tumors were measured every 3 or 4 days, and their volumes were calculated using the equation: mm^3=[…]×length(mm)×(width(mm))^2.

[3] = tested on: Hs578T orthotopic breast tumors; experiment: BIKDD gene therapy model: orthotopic Hs578T tumors, intratumoral VISA-BIKDD plus STF-083010; format: in vivo, nude mice
Procedure: as §3

ASB11 mRNA = experiment: RT-qPCR analysis of ASB11 mRNA level under ER stress; format: cell-based; conditions: 293T, MDA-MB157 and MDA-MB468 cells; 16 h; FIG. 3a
Procedure: FIG. 3. ER stress induces ASB11 transcription through XBP1. (a, b) RT-qPCR analysis of ASB11 mRNA level in 293T cells (a) or 293T cells stably expressing control or XBP1 shRNAs (b) treated with tunicamycin or thapsigargin for 16 h. (c) RT-qPCR analysis of ASB11 mRNA expression in 293T cells transfected with control vector or XBP1s. (d) Schematic representation of the 5′-regulatory region of ASB11 gene, the luciferase reporters and the ChIP primers used in this study. (e, g) Luciferase reporter assay of 293T cells transfected with control or XBP1s expression construct together with the indicated reporter constructs. (f, k) qChIP assays in 293T cells (f) or 293T derivatives (k) treated with 10 μg/ml tunicamycin for 16 h using control IgG or XBP1s antibody for immunoprecipitation and indicated sets of primers for qPCR. […] P values are determined by t-test (a, b right panel, c, e) or 1-way ANOVA with Tukey's post test (b left panel, f, g, i, j, k). **P<0.01; ***P<0.001.
Total mRNA was extracted from cells using TRIZOL reagent (Invitrogen), and equal amounts of RNA were reverse transcribed to cDNA using the iScript™ cDNA Synthesis Kit (Bio-Rad). Quantitative real-time PCR was performed using the Power SYBR Green PCR Master kit (Applied Biosystems). […]

ASB11 = experiment: Western blot analysis of ASB11 protein expression under ER stress; format: cell-based; conditions: multiple cell lines; 10 μg/ml tunicamycin or 200 nM thapsigargin, 16 h; FIG. 4a
Procedure: (§4) FIG. 4. ER stress stimulates BIK ubiquitination and degradation through ASB11 and p97. (a) Western blot analysis of BIK and ASB11 levels in 293T cells treated with 10 μg/ml tunicamycin or 200 nM of thapsigargin for 16 h. (b) Western blot analysis of BIK levels in 293T cells treated with 10 μg/ml tunicamycin for 12 h and then with 50 μg/ml cycloheximide for indicated time periods. The relative amounts of BIK are indicated on the bottom. (c, e) Analysis of endogenous (c) or exogenous (e) BIK ubiquitination in 293T cells (c) or 293T derivatives as in FIG. 2d (e) transfected with indicated constructs and treated with tunicamycin. (d) Western blot analysis of 293T derivatives as in FIG. 2d treated with 10 μg/ml tunicamycin for 16 h. (f) Western blot analysis of BIK levels in 293T derivatives co-treated with 10 μg/ml tunicamycin and MG132 for 16 h. (g) Western blot analysis of BIK expression in 293T cells co-treated with tunicamycin and 10 μM CB-5083 for 16 h. […]
(§5) Cell extraction was performed with RIPA lysis buffer containing 50 mM Tris (pH 8.0), 0.15 M NaCl, 1% NP40, 1% sodium deoxycholate, 0.1% SDS, 1 mM PMSF, 1 µg/ml aprotinin, and 1 µg/ml leupeptin. […] Immunoprecipitation was performed and analyzed as previously described. […] The beads were washed with RIPA lysis buffer and the bound proteins were analyzed by Western blot.

BIK [4] = experiment: Western blot analysis of BIK levels in 293T cells; format: cell-based; conditions: multiple cell lines; 10 μg/ml tunicamycin or 200 nM thapsigargin, 16 h; FIG. 4a
Procedure: FIG. 2. […] (d) Western blot analysis of BIK levels in indicated cells stably expressing control or ASB11 shRNAs.
as §1

BIK [5] = experiment: Analysis of endogenous BIK ubiquitination in 293T cells; format: cell-based; conditions: FIG. 4c
Procedure: FIG. 4. ER stress stimulates BIK ubiquitination and degradation through ASB11 and p97. (a) Western blot analysis of BIK and ASB11 levels in 293T cells treated with 10 μg/ml tunicamycin or 200 nM of thapsigargin for 16 h. (b) Western blot analysis of BIK levels in 293T cells treated with 10 μg/ml tunicamycin for 12 h and then with 50 μg/ml cycloheximide for indicated time periods. The relative amounts of BIK are indicated on the bottom. (c, e) Analysis of endogenous (c) or exogenous (e) BIK ubiquitination in 293T cells (c) or 293T derivatives as in FIG. 2d (e) transfected with indicated constructs and treated with tunicamycin. (d) Western blot analysis of 293T derivatives as in FIG. 2d treated with 10 μg/ml tunicamycin for 16 h. (f) Western blot analysis of BIK levels in 293T derivatives co-treated with 10 μg/ml tunicamycin and MG132 for 16 h. (g) Western blot analysis of BIK expression in 293T cells co-treated with tunicamycin and 10 μM CB-5083 for 16 h. (h, i) Western blot analysis of BIK expression in 293T cells stably expressing indicated shRNAs and treated with 10 μg/ml tunicamycin for 16 h. The knockdown efficiency of each shRNA is shown on the right. (j) Immunoprecipitation analysis of p97 interaction with ubiquitinated BIK in 293T cells treated with 10 μg/ml tunicamycin for 16 h. […]

BIK [6] = experiment: Cycloheximide-chase analysis of BIK turnover in 293T cells; format: cell-based; conditions: 10 μg/ml tunicamycin 12 h then 50 μg/ml cycloheximide, FIG. 4b
Procedure: FIG. 4. ER stress stimulates BIK ubiquitination and degradation through ASB11 and p97. (a) Western blot analysis of BIK and ASB11 levels in 293T cells treated with 10 μg/ml tunicamycin or 200 nM of thapsigargin for 16 h. (b) Western blot analysis of BIK levels in 293T cells treated with 10 μg/ml tunicamycin for 12 h and then with 50 μg/ml cycloheximide for indicated time periods. The relative amounts of BIK are indicated on the bottom. (c, e) Analysis of endogenous (c) or exogenous (e) BIK ubiquitination in 293T cells (c) or 293T derivatives as in FIG. 2d (e) transfected with indicated constructs and treated with tunicamycin. (d) Western blot analysis of 293T derivatives as in FIG. 2d treated with 10 μg/ml tunicamycin for 16 h. (f) Western blot analysis of BIK levels in 293T derivatives co-treated with 10 μg/ml tunicamycin and MG132 for 16 h. (g) Western blot analysis of BIK expression in 293T cells co-treated with tunicamycin and 10 μM CB-5083 for 16 h. (h, i) Western blot analysis of BIK expression in 293T cells stably expressing indicated shRNAs and treated with 10 μg/ml tunicamycin for 16 h. The knockdown efficiency of each shRNA is shown on the right. (j) Immunoprecipitation analysis of p97 interaction with ubiquitinated BIK in 293T cells treated with 10 μg/ml tunicamycin for 16 h.

p97 / ubiquitinated BIK = experiment: Immunoprecipitation analysis of p97 interaction with ubiquitinated BIK; format: cell-based; conditions: 293T cells, 10 μg/ml tunicamycin, 16 h
Procedure: as §4, §5

293T cells = experiment: ELISA assay of cell apoptosis (Cell Death ELISA) in 293T cells; format: cell-based; conditions: control 293T cells, early time point (12 h) after tunicamycin; FIG. 6e
Procedure: FIG. 6. Regulation of ASB11-mediated BIK ubiquitination influences on cell life-death decision under ER stress and DNA damage. (a, b) ELISA assay of cell apoptosis (a) and Western blot analysis of active caspase 3 and cleaved PARP (b) in HCT116 p53^+/+ cells stably expressing indicated ASB11 constructs and treated with 3 μg/ml doxorubicin for 24 h. (c, d) ELISA assay of cell apoptosis (c) and Western blot analysis of active caspase 3 and cleaved PARP (d) in HCT116 p53^+/+ cells transiently transfected with ASB11 and/or BIK and treated with 3 μg/ml doxorubicin for 24 h. (e, f) ELISA assay for cell apoptosis (e) and Western blot analysis of active caspase 3 and cleaved PARP (f) in 293T cells stably expressing indicated shRNAs and treated with […] tunicamycin for 12 h. The knockdown efficiencies of various shRNAs are shown on the bottom. (g) Western blot analysis of BIK level in 293T cells transiently transfected with indicated BIK constructs and treated with 10 μg/ml tunicamycin for 24 h. The equal expression of BIK and BIK(2KR) in untreated cells (by adjusting the amount of plasmid used for transfection) is shown. […]
Apoptosis was analyzed as previously described. […] Cells were harvested and DNA fragmentation was measured by Cell Death ELISA Kit (Roche).

O=S(=O)(N=Cc1c(O)ccc2ccccc12)c1cccs1 [STF-083010, N-[(2-Hydroxy-1-naphthalenyl)methylene]-2-thiophenesulfonamide]
BIKDD levels (BIKDD): elevated | killing of TNBC cells in combination with BIKDD ([1]; CMV-BIKDD transfected Hs578T, MDA-MB157, MDA-MB468, FIG. 7a): synergized | killing effect of co-administration with VISA-BIKDD ([1]; VISA-BIKDD transfected TNBC cells, FIG. 7c): synergistic | level of cleaved PARP, combinatory treatment (cleaved PARP): increased | tumor growth, combined treatment with BIKDD ([2]; BIKDD-expressing Hs578T cells plus STF-083010 40 mg/kg i.p. every 3 days, FIG. 7d): greatly suppressed | body weights of mice ([2]; BIKDD-expressing cell model): not altered | tumor growth, agent alone ([2]; BIKDD-expressing cells or STF-083010 40 mg/kg i.p. every 3 days, alone, FIG. 7d): modest reduction | anti-tumor effect of combined administration compared to BIKDD alone ([3]; VISA-BIKDD 0.75 mg/kg intratumoral every 7 days plus STF-083010 40 mg/kg i.p. every 3-4 days, FIG. 7e): significant enhancement | body weights of mice ([3]; VISA-BIKDD gene therapy model): not altered

tunicamycin
expression of ASB11 mRNA (ASB11 mRNA): upregulated | ASB11 protein expression (ASB11): elevated | BIK protein level (BIK [4]): reduced | ubiquitination of endogenous BIK (BIK [5]): increased | turnover of endogenous BIK (BIK [6]): increased | interaction of p97 with ubiquitinated BIK (p97 / ubiquitinated BIK): increased | apoptosis induction (293T cells): did not show sign of apoptosis induction
